This is an account of results in patent publication US9884868B2, “TGF-beta inhibitors” (Rigel Pharmaceuticals, Inc., priority 2015, dated 2018).

Structures can show the parent of a compound that is named as a salt.

The test addresses HIS-TGF-βR1 T204D (Homo sapiens (Human), UniProt P36897, T204D). The test is described as follows: HTRF probe displacement assay with HIS-TGF-βR1 T204D. As to conditions: read-out: TGFbr1 IC50; HTRF probe displacement, 1 nM HIS-TGF-βR1 T204D, 1 hour at room temperature. In general terms: In TR-FRET formats the signal depends on donor and acceptor labels being close together.

Chain of HIS-TGF-βR1 T204D (P36897 34-503 T204D): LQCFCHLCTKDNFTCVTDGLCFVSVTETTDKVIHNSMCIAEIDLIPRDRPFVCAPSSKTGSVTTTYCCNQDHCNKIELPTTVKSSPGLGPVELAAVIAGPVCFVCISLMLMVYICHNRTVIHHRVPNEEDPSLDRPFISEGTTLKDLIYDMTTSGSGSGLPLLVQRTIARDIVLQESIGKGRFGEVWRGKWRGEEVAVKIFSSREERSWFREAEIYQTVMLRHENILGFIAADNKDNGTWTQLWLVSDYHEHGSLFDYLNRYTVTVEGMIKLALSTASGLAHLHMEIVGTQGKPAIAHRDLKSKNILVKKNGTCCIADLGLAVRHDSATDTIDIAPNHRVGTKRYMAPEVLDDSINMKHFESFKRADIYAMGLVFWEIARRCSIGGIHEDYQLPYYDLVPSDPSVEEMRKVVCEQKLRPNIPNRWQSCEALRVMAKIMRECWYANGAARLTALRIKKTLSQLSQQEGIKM

Take `N#Cc1cnc2ccc(-c3c(-c4ccccc4CO)ncn3CC(F)F)nn12` [253′, 6-(1-(2,2-difluoroethyl)-4-(2-(hydroxymethyl)phenyl)-1H-imidazol-5-yl)imidazo[1,2-b]pyridazine-3-carbonitrile]: the IC50 worked out at 7 nM.

Take `N#Cc1cnc2ccc(-c3c(-c4cccc(C(N)=O)c4)ncn3CC(F)F)nn12` [255′, 3-(5-(3-cyanoimidazo[1,2-b]pyridazin-6-yl)-1-(2,2-difluoroethyl)-1H-imidazol-4-yl)benzamide]: the half-inhibitory concentration (IC50) amounted to 867 nM.

In the case of `N#Cc1cnc2ccc(-c3c(-c4cccc(CO)c4)ncn3CC(F)F)nn12` [256′, 6-(1-(2,2-difluoroethyl)-4-(3-(hydroxymethyl)phenyl)-1H-imidazol-5-yl)imidazo[1,2-b]pyridazine-3-carbonitrile], the IC50 came out at 5 nM.

On to `N#Cc1ccc(-c2ncn(CC(F)F)c2-c2ccc3ncc(C#N)n3n2)cc1` [258′, 6-(4-(4-cyanophenyl)-1-(2,2-difluoroethyl)-1H-imidazol-5-yl)imidazo[1,2-b]pyridazine-3-carbonitrile], for which the IC50 was found to be 356 nM.

`COc1cc(-c2ncn(CC(F)F)c2-c2ccc3ncc(C#N)n3n2)ccc1F` [262′, 6-(1-(2,2-difluoroethyl)-4-(4-fluoro-3-methoxyphenyl)-1H-imidazol-5-yl)imidazo[1,2-b]pyridazine-3-carbonitrile]: the IC50 amounted to 5.2 nM.

Turning to `N#Cc1cnc2ccc(-c3c(-c4ccc(N)cc4)ncn3CC(F)F)nn12` [264′, 6-(4-(4-aminophenyl)-1-(2,2-difluoroethyl)-1H-imidazol-5-yl)imidazo[1,2-b]pyridazine-3-carbonitrile], the IC50 was 516 nM.

With `N#Cc1cc(-c2ncn(CC(F)F)c2-c2ccc3ncc(C#N)n3n2)ccc1F` [266′, 6-(4-(3-cyano-4-fluorophenyl)-1-(2,2-difluoroethyl)-1H-imidazol-5-yl)imidazo[1,2-b]pyridazine-3-carbonitrile], the IC50 stood at 7.9 nM.

On to `N#CCCn1cnc(-c2ccc(F)cc2)c1-c1ccc2ncc(C#N)n2n1` [268′, 6-(1-(2-cyanoethyl)-4-(4-fluorophenyl)-1H-imidazol-5-yl)imidazo[1,2-b]pyridazine-3-carbonitrile], for which the concentration for half-maximal inhibition (IC50) was found to be 19 nM.

For `OCc1cnc2ccc(-c3c(-c4ccc(F)cc4)ncn3CC(F)F)cn12` [274D′, (6-(1-(2,2-difluoroethyl)-4-(4-fluorophenyl)-1H-imidazol-5-yl)imidazo[1,2-a]pyridin-3-yl)methanol], the half-maximal inhibitory concentration (IC50) stood at 92.6 nM.

`N#Cc1cnc2ccc(-c3c(-c4ccc(F)cc4)nc4n3CCC4)cn12` [283B′, 6-(2-(4-fluorophenyl)-6,7-dihydro-5H-pyrrolo[1,2-a]imidazol-3-yl)imidazo[1,2-a]pyridine-3-carbonitrile]: the IC50 was 13.8 nM.

Regarding `Nc1cnc2ccc(-c3c(-c4ccc(F)cc4)ncn3CC(F)F)cn12` [284D′, 6-(1-(2,2-difluoroethyl)-4-(4-fluorophenyl)-1H-imidazol-5-yl)imidazo[1,2-a]pyridin-3-amine], the IC50 was found to be 1.2 nM.

In the case of `Cn1cnc(-c2ccc(F)c(F)c2)c1-c1ccc2cn[nH]c2c1` [Compound 65, 6-(4-(3,4-Difluorophenyl)-1-methyl-1H-imidazol-5-yl)-1H-indazole], the IC50 came out at 63.2 nM.

Turning to `N#Cc1cnc2ccc(-c3c(-c4ccc(F)cc4)ncn3[C@H]3C[C@@H](O)C3)nn12` [Example 2′], the half-inhibitory concentration (IC50) is 2.3 nM.

For `CC[C@@H](CO)n1cnc(-c2ccc(F)cc2)c1-c1ccc2ncc(C#N)n2n1` [Example 6′, (S)-6-(4-(4-fluorophenyl)-1-(1-hydroxybutan-2-yl)-1H-imidazol-5-yl)imidazo[1,2-b]pyridazine-3-carbonitrile], the IC50 worked out at 5 nM.

Regarding `N#Cc1cnc2ccc(-c3c(-c4ccc(F)c(Cl)c4)ncn3CCO)nn12` [Example 32′, 6-(4-(3-chloro-4-fluorophenyl)-1-(2-hydroxyethyl)-1H-imidazol-5-yl)imidazo[1,2-b]pyridazine-3-carbonitrile], the IC50 was found to be 1.8 nM.

`N#Cc1cnc2ccc(-c3c(-c4ccc(F)c(Cl)c4)ncn3[C@H]3C[C@@H](O)C3)nn12` [Example 39′, 6-(4-(3-chloro-4-fluorophenyl)-1-((cis)-3-hydroxycyclobutyl)-1H-imidazol-5-yl)imidazo[1,2-b]pyridazine-3-carbonitrile]: the IC50 was found to be 0.9 nM.

On to `CC[C@@H](CF)n1cnc(-c2ccc(F)cc2)c1-c1ccc2ncc(C#N)n2n1` [Example 103′, (S)-6-(1-(1-fluorobutan-2-yl)-4-(4-fluorophenyl)-1H-imidazol-5-yl)imidazo[1,2-b]pyridazine-3-carbonitrile], for which the IC50 amounted to 1.8 nM.

Turning to `N#Cc1cnc2ccc(-c3c(-c4ccc(F)c(Cl)c4)ncn3C3CC(F)C3)nn12` (stereo not shown) [Example 104′, 6-(4-(3-chloro-4-fluorophenyl)-1-(3-fluorocyclobutyl)-1H-imidazol-5-yl)imidazo[1,2-b]pyridazine-3-carbonitrile], the IC50 was 0.5 nM.

Regarding `NC(=O)c1cnc2ccc(-c3c(-c4ccc(F)cc4)ncn3[C@H]3C[C@@H](O)C3)nn12` [Example 123′], the IC50 stood at 4.2 nM.

For `N#CC1(n2cnc(-c3ccc(F)cc3)c2-c2ccc3nccn3n2)CC1` [Example 188′, 1-(4-(4-fluorophenyl)-5-(imidazo[1,2-b]pyridazin-6-yl)-1H-imidazol-1-yl)cyclopropanecarbonitrile], the IC50 came out at 2 nM.

Regarding `Fc1ccc(-c2ncn(C3(C(F)F)CC3)c2-c2ccc3nccn3n2)cc1` [Example 189′, 6-(1-(1-(difluoromethyl)cyclopropyl)-4-(4-fluorophenyl)-1H-imidazol-5-yl)imidazo[1,2-b]pyridazine], the IC50 was determined as 1.6 nM.

Take `CNCc1cnc2ccc(-c3c(-c4ccc(F)cc4)ncn3CC(F)F)nn12` [Example 196′]: the IC50 was 23.8 nM.

In the case of `N=C(NO)c1cnc2ccc(-c3c(-c4ccc(F)cc4)ncn3CC(F)F)nn12` [Example 203′, 6-(1-(2,2-difluoroethyl)-4-(4-fluorophenyl)-1H-imidazol-5-yl)-N-hydroxyimidazo[1,2-b]pyridazine-3-carboximidamide], the IC50 came to 1.1 nM.

Regarding `CC(C)(O)c1cnc2ccc(-c3c(-c4ccc(F)cc4)ncn3CC(F)F)nn12` [Example 204′, 2-(6-(1-(2,2-difluoroethyl)-4-(4-fluorophenyl)-1H-imidazol-5-yl)imidazo[1,2-b]pyridazin-3-yl)propan-2-ol], the IC50 was determined as 1.2 nM.

As to `NNC(=O)c1cnc2ccc(-c3c(-c4ccc(F)cc4)ncn3CC(F)F)nn12` [Example 205′, 6-(1-(2,2-difluoroethyl)-4-(4-fluorophenyl)-1H-imidazol-5-yl)imidazo[1,2-b]pyridazine-3-carbohydrazide], the IC50 was 1.8 nM.

Turning to `OCc1cnc2ccc(-c3c(-c4ccc(F)cc4)ncn3CC(F)F)nn12` [Example 210′, (6-(1-(2,2-difluoroethyl)-4-(4-fluorophenyl)-1H-imidazol-5-yl)imidazo[1,2-b]pyridazin-3-yl)methanol], the IC50 is 2.2 nM.

Take `CC(=O)Nc1cnc2ccc(-c3c(-c4ccc(F)cc4)ncn3CC(F)F)nn12` [Example 212′, N-(6-(1-(2,2-difluoroethyl)-4-(4-fluorophenyl)-1H-imidazol-5-yl)imidazo[1,2-b]pyridazin-3-yl)acetamide]: the IC50 was 9.3 nM.

Turning to `CC(O)c1cnc2ccc(-c3c(-c4ccc(F)cc4)ncn3CC(F)F)nn12` (stereo not shown) [Example 214′, 1-(6-(1-(2,2-difluoroethyl)-4-(4-fluorophenyl)-1H-imidazol-5-yl)imidazo[1,2-b]pyridazin-3-yl)ethanol], the IC50 worked out at 1.1 nM.

On to `Fc1ccc(-c2ncn(CC(F)F)c2-c2ccc3ncc(C(F)F)n3n2)cc1` [Example 215′, 6-(1-(2,2-difluoroethyl)-4-(4-fluorophenyl)-1H-imidazol-5-yl)-3-(difluoromethyl)imidazo[1,2-b]pyridazine], for which the 50% inhibitory concentration (IC50) came out at 0.8 nM.

As to `Fc1ccc(-c2ncn(CC(F)F)c2-c2ccc3ncc(-c4cnco4)n3n2)cc1` [Example 216′, 5-(6-(1-(2,2-difluoroethyl)-4-(4-fluorophenyl)-1H-imidazol-5-yl)imidazo[1,2-b]pyridazin-3-yl)oxazole], the IC50 stood at 0.9 nM.

With `OCCc1cnc2ccc(-c3c(-c4ccc(F)cc4)ncn3CC(F)F)nn12` [Example 217′, 2-(6-(1-(2,2-difluoroethyl)-4-(4-fluorophenyl)-1H-imidazol-5-yl)imidazo[1,2-b]pyridazin-3-yl)ethanol], the IC50 was 3.2 nM.

`Fc1ccc(-c2ncn(CC(F)F)c2-c2ccc3nccn3c2)cc1` [Example 218′, 6-(1-(2,2-difluoroethyl)-4-(4-fluorophenyl)-1H-imidazol-5-yl)imidazo[1,2-a]pyridine]: the half-maximal inhibitory concentration (IC50) was found to be 62.7 nM.

For the compound `N#Cc1cnc2ccc(-c3c(-c4ccc(F)cc4)ncn3CC(F)F)cn12` [Example 224′, 6-(1-(2,2-difluoroethyl)-4-(4-fluorophenyl)-1H-imidazol-5-yl)imidazo[1,2-a]pyridine-3-carbonitrile], the IC50 stood at 66.7 nM.

As to `N#Cc1cccc(-c2ncn(CC(F)F)c2-c2ccc3ncc(C#N)n3n2)c1` [Example 236], the IC50 amounted to 2.1 nM.

For `N#Cc1cnc2ccc(-c3c(-c4ccc(F)cc4)ncn3C3(C#N)CC3)nn12` [Example 267′, 6-(1-(1-cyanocyclopropyl)-4-(4-fluorophenyl)-1H-imidazol-5-yl)imidazo[1,2-b]pyridazine-3-carbonitrile, TFA], the IC50 was determined as 0.3 nM.

Regarding `CC(C)(C)Cn1cnc(-c2ccc(F)cc2)c1-c1ccc2ncc(C#N)n2n1` [Example 270′, 6-(4-(4-fluorophenyl)-1-neopentyl-1H-imidazol-5-yl)imidazo[1,2-b]pyridazine-3-carbonitrile], the half-maximal inhibitory concentration (IC50) came out at 99.2 nM.

Consider `Cc1nc(-c2ccc(F)cc2)c(-c2ccc3nccn3c2)n1CC(F)F` [Example 271′, 6-(1-(2,2-difluoroethyl)-4-(4-fluorophenyl)-2-methyl-1H-imidazol-5-yl)imidazo[1,2-a]pyridine], for which the IC50 stood at 172 nM.

Broadly, the IC50 is the concentration that gives 50% inhibition.
